From publication PMC1084349 (BMC Neuroscience, 2005)
Structures can show the parent of a compound that is named as a salt. Where two headings read alike, the source gives them in different places. Values belong to the molecule of their own block, whether it stands above or below them.

Legend:
[1] = tested on: hTAS1R2 and tas1r3-hN-rTM; assay: Calcium mobilization (FLIPR), chimera with human N-terminus and rat transmembrane region; format: cell-based
From the text: The receptor chimeras of Tas1r3 were constructed using recombinant PCR. In the first reactions the N-terminal and the C-terminal part containing the seven transmembrane domains of hTAS1R3 and rTas1r3 were amplified from plasmid DNA using Ultra Pfu Polymerase (Stratagene). For the hTAS1R3 and rTas1r3 N-termini the forward vector-anchored primer (CMV: […]) and a reverse gene specific primer ([…]) were used. The hTAS1R3 and rTas1r3 C-terminal part were amplified with forward gene specific primer ([…]) and a reverse vector-anchored primer ([…]). PCR conditions were: 5 min, 94°C, 24 cycles 1 min 94°C, 0.5 min 64°C, 2 min 72°C; 5 min 72°C. The amplicons were purified using the Highpure PCR Product Purification Kit (Roche) and used as template for the second PCR. To create the chimeric receptor tas1r3-hN-rTM, equimolar amounts (~50 ng) of the hTAS1R3 N-terminus and rTas1r3 transmembrane domains were combined without additional oligonucleotides. PCR conditions were: 5 min 94°C; 15 cycles of 2 min 64°C, 2 min 72°C and 0.5 min 94°C; followed by 5 min 64°C and 10 min 72°C. […] These chimeras were cloned into pcDNA5/FRT.
(§1) The cDNAs were transiently transfected into HEK293T cells stably expressing the chimeric G-protein subunit Gα16gust44 [20] using Lipofectamine 2000 (Invitrogen) according to the manufacturer's protocol. 3–4 hours after transfection, DMEM was replaced by low-glucose DMEM supplemented with GlutaMAX and 10% dialyzed FBS (Invitrogen). 22–44 hours later, cells were loaded for 1 hour with the calcium sensitive dye Fluo4-AM (2 μg/ml in DMEM, Molecular Probes). Cells were washed 3x in solution C1 (130 mM NaCl, 5 mM KCl, 10 mM Hepes, 2 mM CaCl2, and 5 mM Glucose, pH 7,4). Calcium mobilization was monitored by an automated fluorometric imaging plate reader (FLIPR, Molecular Devices). Ligands (Sigma-Aldrich, Merck) were dissolved in C1 solution. All data were collected from at least two independent experiments carried out in triplicate. The obtained calcium signals were corrected for the response of mock transfected cells and normalized to the fluorescence of cells prior to the stimulus using ΔF/F=(F-F0)/F0. […]
All sweeteners were used at concentrations which were close to the maximal obtainable signal. (c) Alignment of amino acid sequences of the human, rat, and mouse Tas1r3 transmembrane regions. Color code: white, identical; grey, conservative; dark-grey, similar; black, non-similar. TM, predicted transmembrane domain, indicated by a black bar. Dots indicate the location of the primer used to generate the chimeric rat-human Tas1r3 receptors. Asterisks denote amino acid positions that are identical in rat and mouse but variable between humans and rodents and are located in the extracellular loops or the upper part of the transmembran regions. Boxes indicate the several rTas1r3 mutants m1 – m7, including the amino acid substitutions. m6/1 – m6/3 signified the reconverted amino acid of mutant m6.

[2] = tested on: rTas1r2 and rTas1r3 mutants m1 – m7 other than m6; assay: Calcium mobilization (FLIPR), other rTas1r3 mutants (m1-m5, m7); format: cell-based, rat; conditions: stimulation with 1 mM stevioside; 1.0 mM lactisole
From the text: Receptor mutants were generated by site directed mutagenesis according to the QuikChange protocol (Stratagene). The forward and reverse complement primers contained the desired mutations and annealed to the same sequence on opposite strands of the plasmids. The following rTas1r3 receptor variants were generated: m1: S576L; m2: R632Q, S635P, S637Q; m3: M644L A645S; m4: A702T; m5: Q717H, V718M, V723A, E725V; m6: L735F, V738A, I740A. m6/1: V738A, I740A, m6/2: L735F, I740A, m6/3: L735F, V738A. m7: A793V, Y794L, Q795R. Subsequently a rTas1r3-V738A variant was generated. All constructs were checked by sequencing.
as §1, with “Cells were washed 3x in solution C1 (130 mM NaCl, 5 mM KCl, 10 mM Hepes, 2 mM CaCl2, and 5 mM Glucose, pH 7,4).” left out, “Ligands (Sigma-Aldrich, Merck) were dissolved in C1 solution. All data were collected from at least two independent experiments carried out in triplicate.” left out

[3] = tested on: sweet taste; set-up: method as in PMID 11917125, PMID 7812727, PMID 12379598, PMID 10480680; conditions: rats; cited from earlier work
[4] = tested on: sweet taste; set-up: method as in PMID 11917125, PMID 7812727, PMID 12379598, PMID 10480680; conditions: humans; cited from earlier work
[5] = tested on: human TAS1R2-TAS1R3 heteromer; conditions: cited from earlier work
[6] = target: T1, hTAS1R2-hTAS1R3 (Homo sapiens, UniProt Q7RTX0+Q8TE23); assay: Calcium mobilization (FLIPR) in transfected HEK293T-Gα16gust44 cells, human sweet receptor; conditions: asp 15 mM; cyc 30 mM; neo 0.1 mM; sac 10 mM; suc 100 mM; stev 1 mM
T1 sequence (Q8TE23 20-839): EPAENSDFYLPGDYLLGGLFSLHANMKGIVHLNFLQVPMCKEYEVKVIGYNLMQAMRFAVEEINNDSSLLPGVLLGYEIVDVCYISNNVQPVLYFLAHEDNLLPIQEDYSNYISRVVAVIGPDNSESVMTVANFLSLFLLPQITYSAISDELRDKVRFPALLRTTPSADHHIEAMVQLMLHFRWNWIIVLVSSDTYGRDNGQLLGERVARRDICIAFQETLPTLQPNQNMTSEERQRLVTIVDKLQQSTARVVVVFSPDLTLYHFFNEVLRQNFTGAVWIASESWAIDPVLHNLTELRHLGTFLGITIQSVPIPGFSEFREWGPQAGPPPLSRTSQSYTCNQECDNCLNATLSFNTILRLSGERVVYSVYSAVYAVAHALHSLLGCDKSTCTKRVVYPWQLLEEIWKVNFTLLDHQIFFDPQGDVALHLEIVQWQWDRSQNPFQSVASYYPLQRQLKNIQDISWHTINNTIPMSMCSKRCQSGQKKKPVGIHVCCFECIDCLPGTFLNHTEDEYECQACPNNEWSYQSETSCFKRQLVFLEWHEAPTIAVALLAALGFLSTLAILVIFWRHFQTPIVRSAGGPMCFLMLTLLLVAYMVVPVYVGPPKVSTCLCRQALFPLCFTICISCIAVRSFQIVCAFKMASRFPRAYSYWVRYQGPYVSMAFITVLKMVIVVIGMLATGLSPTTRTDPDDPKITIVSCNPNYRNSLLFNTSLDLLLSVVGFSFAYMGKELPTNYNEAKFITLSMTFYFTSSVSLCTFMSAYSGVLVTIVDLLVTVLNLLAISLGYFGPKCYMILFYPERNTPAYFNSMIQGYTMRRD
T1 sequence (Q7RTX0 21-852): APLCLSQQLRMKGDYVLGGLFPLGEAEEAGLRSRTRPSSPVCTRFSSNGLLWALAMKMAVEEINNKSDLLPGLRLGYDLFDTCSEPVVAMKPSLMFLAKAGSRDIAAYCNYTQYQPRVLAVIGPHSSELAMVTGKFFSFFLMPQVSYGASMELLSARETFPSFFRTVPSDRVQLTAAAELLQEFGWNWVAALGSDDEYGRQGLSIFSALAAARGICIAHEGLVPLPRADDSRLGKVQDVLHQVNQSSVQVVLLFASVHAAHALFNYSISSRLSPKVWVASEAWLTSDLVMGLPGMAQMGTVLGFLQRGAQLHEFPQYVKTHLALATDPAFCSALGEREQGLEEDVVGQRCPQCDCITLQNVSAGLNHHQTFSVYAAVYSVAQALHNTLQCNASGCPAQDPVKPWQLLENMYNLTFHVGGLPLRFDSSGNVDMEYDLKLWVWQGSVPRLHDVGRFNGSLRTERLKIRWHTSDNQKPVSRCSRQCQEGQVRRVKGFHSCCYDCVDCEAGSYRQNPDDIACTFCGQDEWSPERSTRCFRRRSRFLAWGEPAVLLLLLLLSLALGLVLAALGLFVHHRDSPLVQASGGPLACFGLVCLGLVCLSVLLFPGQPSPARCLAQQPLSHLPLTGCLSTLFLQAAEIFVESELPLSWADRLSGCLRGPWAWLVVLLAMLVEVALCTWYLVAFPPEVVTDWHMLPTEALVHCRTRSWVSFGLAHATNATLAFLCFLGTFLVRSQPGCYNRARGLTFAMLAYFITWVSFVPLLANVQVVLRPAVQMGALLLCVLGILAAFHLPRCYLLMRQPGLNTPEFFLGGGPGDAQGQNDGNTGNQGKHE

Molecule: COc1ccc(OC(C)C(=O)O)cc1 (stereo not drawn) [lactisole, 2-(4-methoxphenoxy) propanoic acid sodium salt]
lactisole sensitivity of agonist responses ([1]; 1.0 mM lactisole, all four agonists): lactisole insensitive
lactisole sensitivity conferred to the heteromer [2]: did not
suppression of the sweet taste of various compounds [3]: not in rats
suppression of the sweet taste of various compounds [4]: suppresses the sweet taste

Molecule: monellin
activation of heteromer [5]: only activate the human

Molecule: brazzein: sweet protein (QDKCKKVYENYPVSKCQLANQCNYDCKLDKHARSGECFYDEKRNLQCICDYCEY; UniProt P56552 1-54, looked up)
activation of heteromer [5]: only activate the human

Molecule: thaumatin
activation of heteromer [5]: only activate the human

activation of receptor (calcium response) ([1]; asp 15 mM, cyc 30 mM, neo 0.1 mM, sac 10 mM, suc 100 mM, stev 1 mM): responded
activation of receptor (calcium response) [6]: elevated intracellular calcium levels
Molecule: O=C1NS(=O)(=O)c2ccccc21 [saccharin]
